These results are taken from PubChem BioAssay (NCI).

Values joined by “and” are separate entries in the source; they are usually repeats but may differ in a detail not shown here. Equal values may be shown once.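 All cell lines were grown in 96-well plates and treated with compound for 48 hours. GI50 marks 50% less growth. TGI marks complete inhibition of growth.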

Among the test systems are DMS 273 small cell lung; KM20L2 colon; M19-MEL melanoma; SNB-78 CNS; BT-549 breast; HS 578T breast; MCF7 breast; MDA-MB-231 breast; MDA-MB-435; PC-3 prostate.
Holding throughout (assay): NCI tumour cell line growth inhibition, 48 h

`NC(=O)C1C(=O)Oc2cccnc21` (stereo not given): the TGI with DMS 273 small cell lung, in the test with KM20L2 colon and in the test with M19-MEL melanoma was over 100 µM in each case.

With `O=C(NCCOC(=O)CCCCCCCCC(=O)OCCNC(=O)NC(=O)c1cn(Cc2ccccc2)c(=O)[nH]c1=O)NC(=O)c1cn(Cc2ccccc2)c(=O)[nH]c1=O`, the TGI in the test on DMS 273 small cell lung, in the test on KM20L2 colon, with M19-MEL melanoma and in the test with SNB-78 CNS was over 100 µM each time.

Regarding `COc1cc2c(c(OC)c1OC)-c1ccc(SC)c(=O)cc1C(CC(=O)Oc1ccccc1F)C2` (stereo not given), the TGI is 0.0252 µM in the test on KM20L2 colon, over 7.5 µM with M19-MEL melanoma and over 7.5 µM with SNB-78 CNS.

Regarding `CN(C)CCC(/C=C/c1ccccc1)=N\Nc1c(F)c(F)c(F)c(F)c1F`, the TGI in the test on DMS 273 small cell lung, in the test with M19-MEL melanoma and in the test on SNB-78 CNS was over 100 µM each time.

As for `O=C(Cn1ccnc1[N+](=O)[O-])NCc1ccc(F)cc1`, the TGI with DMS 273 small cell lung, in the test with KM20L2 colon and in the test on M19-MEL melanoma was over 100 µM in each case.

Consider `O=C(CC/C(CC(=O)c1ccc(Cl)cc1)=N\O)Nc1cccc(Cl)c1`, for which the TGI in the test on DMS 273 small cell lung, with KM20L2 colon, in the test on M19-MEL melanoma and in the test with SNB-78 CNS was over 100 µM in each case.

In the case of `CC(=O)O[C@H]1C(=O)[C@@]2(C)C([C@H](OC(=O)c3ccccc3)[C@]3(O)C[C@H](OC(=O)[C@H](O)[C@@H](NC(=O)c4ccc(Cl)cc4)c4ccccc4)C(C)=C1C3(C)C)C1(OC(C)=O)CO[C@@H]1C[C@@H]2O` (stereo not given in full), the TGI with BT-549 breast is 0.212 µM; in the test with HS 578T breast, 0.185 µM; with KM20L2 colon it was over 100 µM; with M19-MEL melanoma, 14.1 µM; in the test on MCF7 breast it was 25 µM; in the test on MDA-MB-231 breast it was 25 µM. Further, the TGI with MDA-MB-435 amounted to 0.0126 µM; with PC-3 prostate, 0.217 µM.

For `COc1cc([C@H]2c3cc4c(cc3[C@H](NCc3ccc(F)cc3)C3COC(=O)[C@H]32)OCO4)cc(OC)c1O` (stereo not given in full), the TGI in the test on DMS 273 small cell lung was 13.8 µM; in the test with KM20L2 colon, 15.8 µM; with M19-MEL melanoma it was 23.4 µM; in the test on SNB-78 CNS, 78 µM.

On to `Cc1cc2nc3c(C(OC4OC(CO)C(O)C(O)C4O)C(O)CO)nn(-c4ccc(F)cc4)c3nc2cc1C` (stereo not given), for which the TGI in the test with KM20L2 colon, in the test on M19-MEL melanoma and with SNB-78 CNS was over 100 µM each time.

Take `COc1ccc(S(=O)(=O)NNS(C)(=O)=O)cc1OC`: the TGI in the test on DMS 273 small cell lung, with KM20L2 colon and in the test with M19-MEL melanoma was over 100 µM throughout.

Regarding `Cc1ccc(/C=C2\CCCC(C(NO)c3ccc(C)cc3)C2=NO)cc1` (stereo not given), the TGI in the test with DMS 273 small cell lung was over 100 µM; with KM20L2 colon, 42.5 µM; in the test on M19-MEL melanoma it was over 100 µM; with SNB-78 CNS, over 100 µM.

Turning to `O=C([CH-]C(=O)c1ccccc1)c1ccccc1.[CH2-]C.[CH2-]C.[Tl+3]`, the GI50 in the test with BT-549 breast is 26.9 µM; in the test with HS 578T breast, 31.7 µM; in the test on KM20L2 colon it was 27.4 µM; in the test with MCF7 breast it was 7.73 µM; with MDA-MB-231 breast it was over 100 µM; with MDA-MB-435, 24.8 µM. The GI50 in the test on PC-3 prostate is 32 µM. For the same compound, the TGI in the test with BT-549 breast, with HS 578T breast, in the test on KM20L2 colon, in the test with MCF7 breast, in the test with MDA-MB-231 breast and in the test with MDA-MB-435 was over 100 µM throughout. In the test on PC-3 prostate, this compound showed a TGI of over 100 µM.

As to `Cc1ccc(-n2cc(/C(N)=N/O)c3ccccc3c2=O)cc1`, the TGI in the test with DMS 273 small cell lung, in the test with KM20L2 colon and in the test with M19-MEL melanoma was over 100 µM throughout.

As to `CC1(O)CC2C(CC1SCc1ccccc1)C2(C)C` (stereo not given), the TGI in the test with DMS 273 small cell lung was 33.1 µM and 29.2 µM; in the test on KM20L2 colon it was 59.4 µM and 35.9 µM; with M19-MEL melanoma, 57.8 µM and > 100 µM; in the test with SNB-78 CNS, > 100 µM and 34.9 µM. Further, the GI50 is 26.2 µM and > 100 µM with M19-MEL melanoma; 76.7 µM and 17.9 µM in the test on SNB-78 CNS.

Consider `C=C(/C=C/C=C(\CO)CCC=C(C)C)[C@H]1CCC2([C@H](CCCO)/C(=C(/C)C=O)CC[C@]2(C)O)[C@H]1O` (stereo not given in full), for which the TGI with DMS 273 small cell lung, in the test on KM20L2 colon, with M19-MEL melanoma and with SNB-78 CNS was over 100 µM each time.

In the case of `Cc1cccc(NC(=O)CSc2nnc(-c3ccc(N=Cc4ccc(Cl)cc4)cc3)o2)c1`, the TGI in the test on DMS 273 small cell lung, with KM20L2 colon, with M19-MEL melanoma and in the test on SNB-78 CNS was over 100 µM throughout.

For the compound `O=C(/C=N/O)Nc1cccc(Cl)c1I`, the TGI in the test on DMS 273 small cell lung, in the test on KM20L2 colon and in the test with M19-MEL melanoma was over 100 µM each time.

Take `Clc1ccc(/C=C/c2csnn2)cc1`: the TGI in the test on DMS 273 small cell lung, in the test on KM20L2 colon, in the test on M19-MEL melanoma and in the test with SNB-78 CNS was over 100 µM each time.

For `O=C(O)c1cc2ccc(Cl)cc2c(O)c1C1=CCCCC1`, the TGI was 68.8 µM in the test with DMS 273 small cell lung, over 100 µM in the test with KM20L2 colon, over 100 µM in the test on M19-MEL melanoma and over 100 µM in the test with SNB-78 CNS.

On to `CNC(=O)N(CCCCC(NC(C)=O)C(=O)NCc1ccccc1)Cc1ccccc1` (stereo not given), for which the TGI in the test with DMS 273 small cell lung, in the test on KM20L2 colon, with M19-MEL melanoma and in the test on SNB-78 CNS was over 100 µM in each case.

Take `c1ccc2c(c1)n1nnnc1c1nnnn21`: the TGI with DMS 273 small cell lung, in the test with KM20L2 colon, with M19-MEL melanoma and in the test with SNB-78 CNS was over 100 µM throughout.

In the case of `Cc1cc(N(CCC#N)CCC#N)ccc1/C=C1N=C(/C=C\c2ccccc2)N(c2ccc(C(=O)O)cc2)C\1=O`, the TGI with KM20L2 colon, with M19-MEL melanoma and in the test on SNB-78 CNS was over 100 µM throughout.

As to `O=C(N[C@H]1CC2(C=C(I)C(=O)C(I)=C2)OC1=O)OCc1ccccc1`, the TGI amounted to 34.7 µM with KM20L2 colon and 33.5 µM with SNB-78 CNS.

For the compound `CN(Cc1cnc2nc(N)nc(N)c2n1)c1c(Cl)cc(C(=O)NC(CCC(=O)O)C(=O)O)cc1Br` (stereo not given), the GI50 with BT-549 breast is under 0.0122 µM; in the test on HS 578T breast it was 17.8 µM; in the test on MCF7 breast it was under 0.01 µM; in the test on MDA-MB-435, under 0.01 µM; in the test with PC-3 prostate, under 0.01 µM. The TGI was over 100 µM in the test with BT-549 breast; over 100 µM in the test with HS 578T breast; over 100 µM in the test with MCF7 breast; over 100 µM in the test with MDA-MB-231 breast; over 100 µM in the test with MDA-MB-435; over 80.1 µM with PC-3 prostate.

As for `Nc1nc2c([nH]1)c1[nH]c3ccccc3c1c1[nH]c3ccccc3c21`, the GI50 with BT-549 breast was 12.1 µM; in the test with HS 578T breast, 20.4 µM; with MCF7 breast, 4.47 µM; in the test on MDA-MB-231 breast it was 4.39 µM; with MDA-MB-435, 9.73 µM; in the test on PC-3 prostate it was 11 µM. The TGI with BT-549 breast worked out at 25.5 µM; in the test on HS 578T breast, 53.9 µM; in the test with MCF7 breast, 21.1 µM; with MDA-MB-231 breast it was 16.9 µM; with MDA-MB-435 it was 22 µM; in the test on PC-3 prostate, 23.1 µM.
